In patent publication US7686975B2, “Use of acylcyclohexanedione derivatives for improving the tolerance of plants to cold and/or frost” (BASF Aktiengesellschaft, priority 2003, dated 2010):

Assays:
Assay type in all cases: in vivo
apple seedlings = experiment: Photochemical efficacy of electron transport (Fv/Fm, PAM fluorometer) in apple seedlings after simulated frost event; details: Golden Delicious seedlings
Experimental: Intact photosynthesis in leaves and other green plant tissues is of utmost importance for frost resistance and the intensity of the subsequent regeneration processes. To study the effect of compounds I which were used in accordance with the invention, the photosynthesis rate of treated (a.5) to (e.5)) and untreated apple seedlings which had been subjected to a simulated frost event was determined.
The material used for the experiments was apple seedlings which had been grown from seeds of Golden Delicious apples following cold stratification under controlled-environment cabinet conditions (temperature approx. 20° C.; relative atmospheric humidity approx. […]; day:night=10.5:13.5 hours; light intensity approx. 200 μmol m^−2 s^−1) and which had three to four fully formed leaves at the point in time of treatment. Batches of 10 plants per combination were treated as follows:
To simulate the frost event, the plants were subjected to the following chill program: • removal from the controlled-environment cabinet (20° C.) • transfer into the chill cell to randomized positions at a height of approximately 40 cm for approx. 6 hours at 12° C. • 2 hours at 4° C. • 1.5 hours at 2° C. • 1 hour at 0° C. • 3.5 hours at −3° C. • controlled-environment cabinet (20° C.)
The photosynthesis rate of the stressed apple seedlings was subsequently determined with the aid of a pulse amplitude modulation fluorometer (PAM 2000, Heinz Walz GmbH, Effeltrich). The quotient Fv/Fm, which is determined, describes the amount of light energy captured by the photosynthesis apparatus of the plants which can be exploited for the production of assimilates. Fv represents the variable fluorescence, which corresponds to the difference between F0 (basal fluorescence, which is measured when a dark-adapted leaf is irradiated with fluorescence-exciting light) and Fm (maximum fluorescence of a dark-adapted leaf) (Fv/Fm=(Fm−F0)/Fm).

apple flowers [1] = experiment: Frost damage on apple flowers, simulated frost event
Source text: To study the effect of compounds I used in accordance with the invention, flower buds or flowers of various apple varieties were sprayed to run-off point at different stages and different points in time with prohexadione-calcium in the form of the commercial preparation Regalis® from BASF AG in the form of 10% strength granules with 250 ppm of active substance or with a mixture of vitamin E and glycerol (see treatments a) to d)) and subjected to a naturally occurring or simulated frost event during mid-bloom. The treated flowering branches and untreated flowering branches which had been subjected to the same frost event and which acted as control, were subsequently transferred for 2 to 4 days into a greenhouse with temperatures ranging from 15 to 25° C., and the floral injury was assessed. Apple branches with flower buds or flowers (R. Cox) were treated as specified under a.1), b.1), c.1) or d.1) and subsequently subjected to a simulated frost event. Nine days (a.1)) or one day (b.1)-d.1)) after the treatment, the treated flowering branches and untreated control branches were cut off and subjected to a simulated frost event. The temperature program of the simulated frost event was as follows: • chilling from 12° C. to 4° C. within 30 minutes • one hour at 4° C. • chilling from 4° C. to 2° C. within 15 minutes • 75 minutes at 2° C. • chilling from 2° C. to −3° C. within 30 minutes • 150 minutes at −3° C. Two days after the frost event, the floral damage was assessed by examining the individual flowers. At the time of evaluation, the flowers were in the floral stage BBCH 54-56 (BBCH=Biologische Bundesanstalt für Land- und Forstwirtschaft, Bundessortenamt und Chemische Industrie [Federal Biological Institute for Agriculture and Forestry, Federal Office for Crop Plant Varieties, Chemical Industry]). Those flowers whose ovary is brownish in color are considered as damaged (destroyed). The data which represent the percentage of damaged flowers correspond to the mean±standard deviation. A statistically significant difference (critical difference: 5%) between the means of the various measurement series is identified by different letters. Apple branches with flower buds or flowers (R. Cox) were treated analogously to Example 1.1.1, but remained for 210 minutes in the frost chamber at −3° C. Apple branches with flower buds or flowers (Jonagold) were treated analogously to Example 1.1.1. They remained for 150 minutes in the frost chamber at −3° C. At the time of evaluation, the flowers were in floral stage BBCH 56-57. Apple branches with flower buds or flowers (Jonagold) were treated analogously to Example 1.1.3, but remained for 210 minutes in the frost chamber at −3° C. Apple branches with flower buds or flowers (Gala) were treated as described under a.2), b.2), c.2) or d.2) and subsequently subjected to a simulated frost event. 11 days (a.2)) or two days (b.2)-d.2)) after the treatment, the treated flowering branches and untreated control branches were cut off and subjected to a simulated frost event. The temperature program of the simulated frost event corresponded to the one in Example 1.1.1. Four days after the frost event, the floral damage was assessed by examining the individual flowers. At the time of evaluation, the flowers were in floral stage BBCH 57-59. Apple branches with flower buds or flowers (Boskoop) were treated analogously to Example 1.1.5. At the time of evaluation, the flowers were in floral stage BBCH 59-61. They remained at −3° C. for 150 minutes.

apple flowers [2] = experiment: Frost damage on apple flowers, naturally occurring frost event
Source text: To study the effect of compounds I used in accordance with the invention, flower buds or flowers of various apple varieties were sprayed to run-off point at different stages and different points in time with prohexadione-calcium in the form of the commercial preparation Regalis® from BASF AG in the form of 10% strength granules with 250 ppm of active substance or with a mixture of vitamin E and glycerol (see treatments a) to d)) and subjected to a naturally occurring or simulated frost event during mid-bloom. The treated flowering branches and untreated flowering branches which had been subjected to the same frost event and which acted as control, were subsequently transferred for 2 to 4 days into a greenhouse with temperatures ranging from 15 to 25° C., and the floral injury was assessed. Apple branches with flower buds or flowers (R. Cox) were treated as described under a.3), b.3), c.3) or d.3) and subsequently subjected to a naturally occurring frost event. The frost period lasted 5 days. The lowest temperature was reached on day two of the frost event and was −4° C. One day after the frost event, the treated flowering branches and untreated control branches were cut off. One day after the branches had been cut off, the floral damage was assessed by examining the individual flowers. At the time of evaluation, the flowers were in floral stage BBCH 56-57. Apple branches with flower buds or flowers (Jonagold) were treated analogously to Example 1.2.1 and exposed to the same frost event. At the time of evaluation, the flowers were in floral stage BBCH 57-59. Apple branches with flower buds or flowers (Boskoop) were treated as described under a.4), b.4), c.4) or d.4) and subsequently subjected to a naturally occurring frost event. The frost period lasted for one day. The lowest temperature was −1.2° C. Two days after the frost event, the treated flowering branches and untreated control branches were cut off, and one day after the branches had been cut off, the floral damage was assessed by examining the individual flowers. At the time of evaluation, the flowers were in floral stage BBCH 57-61.

CCC(=O)C1=C([O-])CC(C(=O)[O-])CC1=O.[Ca+2] (centres unmarked) [prohexadione-calcium]
Fv/Fm (apple seedlings; sprayed 2 days prior to simulated frost (3.5 hours at −3° C.), prohexadione-calcium 50 ppm, 24 hours after frost): survived the frost event virtually undamaged
Fv/Fm (apple seedlings; sprayed 2 days prior to simulated frost (3.5 hours at −3° C.); prohexadione-calcium 50 ppm; 24 hours after frost; listed as c.5)): 0.804
Fv/Fm (apple seedlings; sprayed 8 days prior to simulated frost (3.5 hours at −3° C.), 50 ppm prohexadione-calcium, 24 hours after frost): survived the frost event virtually undamaged
Fv/Fm (apple seedlings; sprayed 8 days prior to simulated frost (3.5 hours at −3° C.); 50 ppm prohexadione-calcium; 24 hours after frost; listed as b.5)): 0.809
Fv/Fm (apple seedlings; sprayed 21 days prior to simulated frost (3.5 hours at −3° C.), 50 ppm prohexadione-calcium, 24 hours after frost): survived the frost event virtually undamaged
Fv/Fm (apple seedlings; sprayed 21 days prior to simulated frost (3.5 hours at −3° C.); 50 ppm prohexadione-calcium; 24 hours after frost; listed as a.5)): 0.812
Percentage of damage to flowers (apple flowers [1]; Boskoop, buds sprayed eleven days prior to simulated frost, prohexadione-calcium 250 ppm, 150 minutes at −3° C., mean±SD): significantly fewer
Percentage of damage to flowers (apple flowers [1]; Boskoop; buds sprayed eleven days prior to simulated frost; prohexadione-calcium 250 ppm; 150 minutes at −3° C.; mean±SD; listed as a.2)): 33.6 ± 4.1%
Percentage of damage to flowers (apple flowers [1]; Boskoop, flowers (mid-bloom) sprayed two days prior to simulated frost, prohexadione-calcium 250 ppm, 150 minutes at −3° C., mean±SD): significantly fewer
Percentage of damage to flowers (apple flowers [1]; Boskoop, flowers (mid-bloom) sprayed two days prior to simulated frost; prohexadione-calcium 250 ppm; 150 minutes at −3° C.; mean±SD; listed as b.2)): 36.8 ± 4.2%
Percentage of damage to flowers (apple flowers [1]; Gala, buds sprayed eleven days prior to simulated frost, prohexadione-calcium 250 ppm, 150 minutes at −3° C., assessed four days after frost, mean±SD): tends to reduce the damage
Percentage of damage to flowers (apple flowers [1]; Gala; buds sprayed eleven days prior to simulated frost; prohexadione-calcium 250 ppm; 150 minutes at −3° C.; assessed four days after frost; mean±SD; listed as a.2)): 5.2 ± 1.8%
Percentage of damage to flowers (apple flowers [1]; Gala, flowers (mid-bloom) sprayed two days prior to simulated frost, prohexadione-calcium 250 ppm, 150 minutes at −3° C., assessed four days after frost, mean±SD): 8.8 ± 2.5%
Percentage of damage to flowers (apple flowers [1]; Jonagold, buds sprayed nine days prior to simulated frost, prohexadione-calcium 250 ppm, 150 minutes at −3° C., mean±SD): significantly fewer
Percentage of damage to flowers (apple flowers [1]; Jonagold; buds sprayed nine days prior to simulated frost; prohexadione-calcium 250 ppm; 150 minutes at −3° C.; mean±SD; listed as a.1)): 54.4 ± 3.2%
Percentage of damage to flowers (apple flowers [1]; Jonagold, buds sprayed nine days prior to simulated frost, prohexadione-calcium 250 ppm, 210 minutes at −3° C., mean±SD): significantly less damage
Percentage of damage to flowers (apple flowers [1]; Jonagold; buds sprayed nine days prior to simulated frost; prohexadione-calcium 250 ppm; 210 minutes at −3° C.; mean±SD; listed as a.1)): 43.8 ± 4.2%
Percentage of damage to flowers (apple flowers [1]; Jonagold, flowers (mid-bloom) sprayed one day prior to simulated frost, prohexadione-calcium 250 ppm, 150 minutes at −3° C., mean±SD): 69.0 ± 2.9%
Percentage of damage to flowers (apple flowers [1]; Jonagold, flowers (mid-bloom) sprayed one day prior to simulated frost, prohexadione-calcium 250 ppm, 210 minutes at −3° C., mean±SD): significantly less damage
Percentage of damage to flowers (apple flowers [1]; Jonagold, flowers (mid-bloom) sprayed one day prior to simulated frost; prohexadione-calcium 250 ppm; 210 minutes at −3° C.; mean±SD; listed as b.1)): 66.0 ± 2.7%
Percentage of damage to flowers (apple flowers [1]; R. Cox, buds sprayed nine days prior to simulated frost, prohexadione-calcium 250 ppm, 210 minutes at −3° C., mean±SD): significantly fewer
Percentage of damage to flowers (apple flowers [1]; R. Cox; buds sprayed nine days prior to simulated frost; prohexadione-calcium 250 ppm; 210 minutes at −3° C.; mean±SD; listed as a.1)): 6.0 ± 1.2%
Percentage of damage to flowers (apple flowers [1]; R. Cox, buds sprayed to run-off nine days prior to simulated frost, prohexadione-calcium 250 ppm, 150 minutes at −3° C., assessed two days after frost, mean±SD): significantly fewer
Percentage of damage to flowers (apple flowers [1]; R. Cox; buds sprayed to run-off nine days prior to simulated frost; prohexadione-calcium 250 ppm; 150 minutes at −3° C.; assessed two days after frost; mean±SD; listed as a.1)): 15.6 ± 2.5%
Percentage of damage to flowers (apple flowers [1]; R. Cox, flowers (mid-bloom) sprayed one day prior to simulated frost, prohexadione-calcium 250 ppm, 210 minutes at −3° C., mean±SD): 33.3 ± 2.6%
Percentage of damage to flowers (apple flowers [1]; R. Cox, flowers (mid-bloom) sprayed to run-off one day prior to simulated frost, prohexadione-calcium 250 ppm, 150 minutes at −3° C., assessed two days after frost, mean±SD): 23.1 ± 2.4%
Percentage of damage to flowers (apple flowers [2]; Boskoop, buds sprayed thirteen days prior to natural frost, prohexadione-calcium 250 ppm, frost one day, lowest −1.2° C., mean±SD): 84.3 ± 3.3%
Percentage of damage to flowers (apple flowers [2]; Boskoop, flowers (mid-bloom) sprayed five days prior to natural frost, prohexadione-calcium 250 ppm, frost one day, lowest −1.2° C., mean±SD): significantly fewer
Percentage of damage to flowers (apple flowers [2]; Boskoop, flowers (mid-bloom) sprayed five days prior to natural frost; prohexadione-calcium 250 ppm; frost one day, lowest −1.2° C.; mean±SD; listed as b.4)): 74.7 ± 3.0%
Percentage of damage to flowers (apple flowers [2]; Jonagold, buds sprayed ten days prior to natural frost, prohexadione-calcium 250 ppm, frost period 5 days, lowest −4° C., mean±SD): 67.5 ± 2.3%
Percentage of damage to flowers (apple flowers [2]; Jonagold, flowers (mid-bloom) sprayed two days prior to natural frost, prohexadione-calcium 250 ppm, frost period 5 days, lowest −4° C., mean±SD): 67.7 ± 2.6%
Percentage of damage to flowers (apple flowers [2]; R. Cox, buds sprayed ten days prior to natural frost, prohexadione-calcium 250 ppm, frost period 5 days, lowest −4° C., mean±SD): reduced floral damage
Percentage of damage to flowers (apple flowers [2]; R. Cox; buds sprayed ten days prior to natural frost; prohexadione-calcium 250 ppm; frost period 5 days, lowest −4° C.; mean±SD; listed as a.3)): 88.3 ± 1.3%
Percentage of damage to flowers (apple flowers [2]; R. Cox, flowers (mid-bloom) sprayed two days prior to natural frost, prohexadione-calcium 250 ppm, frost period 5 days, lowest −4° C., mean±SD): reduced floral damage
Percentage of damage to flowers (apple flowers [2]; R. Cox, flowers (mid-bloom) sprayed two days prior to natural frost; prohexadione-calcium 250 ppm; frost period 5 days, lowest −4° C.; mean±SD; listed as b.3)): 76.6 ± 1.7%
